In patent publication US4623662A, “Antiatherosclerotic ureas and thioureas” (American Cyanamid Company, priority 1985, dated 1986):

molecular target: T1, fatty acyl CoA: cholesterol acyl transferase (ACAT) (Rattus norvegicus, UniProt O70536); assay: Inhibition of fatty acyl CoA:cholesterol acyl transferase (ACAT), rat adrenal enzyme; type: biochemical; conditions: not given
T1 construct: The supernatant, containing the microsomal fraction, served as the source of the cholesterol-esterifying enzyme; from tissue; host or cells: rat adrenals, supernatant of 1,000 x g centrifugation containing the microsomal fraction
T1 sequence (O70536 1-545): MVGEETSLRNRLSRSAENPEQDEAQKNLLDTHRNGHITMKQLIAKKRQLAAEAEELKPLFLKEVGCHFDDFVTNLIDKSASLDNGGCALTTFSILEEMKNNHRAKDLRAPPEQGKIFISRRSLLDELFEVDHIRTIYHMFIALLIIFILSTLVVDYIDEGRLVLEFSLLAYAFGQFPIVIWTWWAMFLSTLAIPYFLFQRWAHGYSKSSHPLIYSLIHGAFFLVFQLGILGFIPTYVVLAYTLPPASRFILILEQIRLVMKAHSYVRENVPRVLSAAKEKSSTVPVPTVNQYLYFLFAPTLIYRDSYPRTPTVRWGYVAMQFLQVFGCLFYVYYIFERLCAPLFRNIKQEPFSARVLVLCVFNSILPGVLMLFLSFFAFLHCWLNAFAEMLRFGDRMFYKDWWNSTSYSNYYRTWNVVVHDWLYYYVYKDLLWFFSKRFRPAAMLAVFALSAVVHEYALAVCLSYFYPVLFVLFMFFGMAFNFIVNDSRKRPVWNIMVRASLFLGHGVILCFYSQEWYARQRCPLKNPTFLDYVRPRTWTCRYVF
Procedure: The compounds of the present invention were assayed for two types of biological activity related to their potential use as antiatherosclerotic agents. Compounds were tested in vitro for the ability to inhibit the enzyme fatty acyl CoA: cholesterol acyl transferase (ACAT) and in vivo for serum hypolipidemic activity as meausred by the ability to inhibit lipid absorption in rats.
The compounds were tested for their ability to inhibit ACAT according to the following procedure: rat adrenals were homogenized in 0.2M monobasic potassium phosphate buffer, pH 7.4, and centrifuged at 1,000 times gravity for 15 minutes at 5° C. The supernatant, containing the microsomal fraction, served as the source of the cholesterol-esterifying enzyme, fatty acyl CoA:cholesterol acyl transferase (ACAT). A mixture comprising 50 parts of adrenal supernatant, 10 parts of bovine serum albumin (50 mg/ml), 3 parts of test compound (final concentration 5.2 μg/ml), and 500 parts of buffer was preincubated at 37° C. for 10 minutes. After treatment with 20 parts of oleoyl CoA (^14 C-0.4 μCi), the mixture was incubated at 37° C. for 10 minutes. A control mixture, omitting the test compound, was prepared and treated in the same manner. The lipids from the incubation mixture was extracted into an organic solvent and separated by thin-layer chromatography. The cholesteryl ester fraction was counted in a scintillation counter. This procedure is a modification of that described by Hashimoto, et al., Life Scie., 12 (Part II), 1-12 (1973).
Compounds which produced statistically significant inhibition of the ACAT enzyme are considered to be active.
In addition to the above described test and the results given in terms of percent inhibition, various compounds of this invention were tested by the same procedure at several concentrations. The results of this test are given in Table II in terms of IC50 (μM), that concentration which produced 50% inhibition of the ACAT enzyme.

Row | SMILES | inhibition at 5.2 µg/mL [%]
1 | CCCCCCCN(Cc1ccc(CCCC)cc1)C(=O)Nc1cccc(C(F)(F)F)c1 [1-(n-Heptyl)-1-[4-(n-butyl)benzyl]-3-(3-trifluoromethylphenyl)urea] | 90

same assay, conditions: rat adrenal ACAT; final concentration 5.2 μg/ml; read-out: % Inhibition

Row | SMILES | inhibition at 5.2 µg/mL [%]
2 | CCCCCCCN(C(=O)Nc1cc(C)c(C)cc1C)c1ccco1 [1-(n-Heptyl)-1-(2-furyl)-3-(2,4,5-trimethylphenyl)urea] | 93.8
3 | CCCCCCCN(C(=O)Nc1c(Cl)cc(Cl)cc1Cl)c1ccco1 [1-(n-Heptyl)-1-(2-furyl)-3-(2,4,6-trichlorophenyl)urea] | 96.1
4 | CCCCCCCN(CCc1ccccc1)C(=O)Nc1cc(Cl)c(Cl)cc1Cl [1-(n-Heptyl)-1-(2-phenylethyl)-3-(2,4,5-trichlorophenyl)urea] | 77.3
5 | CCCCCCCN(CCc1ccccc1)C(=O)Nc1cccc(C(F)(F)F)c1 [1-(n-Heptyl)-1-(2-phenylethyl)-3-(3-trifluoromethylphenyl)urea] | 88.4
6 | CCCCCCCN(Cc1ccc(CCCC)cc1)C(=O)Nc1cc(Cl)c(Cl)cc1Cl [1-(n-Heptyl)-1-(4-n-butylbenzyl)-3-(2,4,5-trichlorophenyl)urea] | 46.5
7 | CCCCCCCN(Cc1ccc(CCCC)cc1)C(=O)Nc1cccc(C(F)(F)F)c1 [1-(n-Heptyl)-1-(4-n-butylbenzyl)-3-(3-trifluoromethylphenyl)urea] | 85
8 | CCCCCCCN(Cc1ccc(CCCC)cc1)C(=O)Nc1ccc(C(=O)O)cc1 [1-(n-Heptyl)-1-(4-n-butylbenzyl)-3-(4-carboxyphenyl)urea] | 61.8
9 | CCCCCCCCCCCCCCN(Cc1ccccc1)C(=O)Nc1ccc(C)cc1C [1-(n-Tetradecyl)-1-benzyl-3-(2,4-dimethylphenyl)urea] | 80.3
10 | CCCCc1ccc(CN(Cc2ccccc2)C(=O)Nc2ccc(Oc3ccccc3)cc2)cc1 [1-Benzyl-1-(4-n-butylbenzyl)-3-(4-phenoxyphenyl)urea] | 93.5
11 | CCCCN(Cc1ccccc1)C(=O)Nc1ccc(Cl)c(Cl)c1 [1-Benzyl-1-( -n-butyl)-3-(3,4-dichlorophenyl)urea] | 95.9
12 | CCCCN(Cc1ccccc1)C(=O)Nc1cccc(Cl)c1OC [1-Benzyl-1-( -n-butyl)-3-(3-chloro-2-methoxyphenyl)urea] | 84.5
13 | CCCCN(Cc1ccccc1)C(=O)Nc1cccc(C(F)(F)F)c1 [1-Benzyl-1-( -n-butyl)-3-(3-trifluoromethylphenyl)urea] | 85.7
14 | CCCCN(Cc1ccccc1)C(=O)Nc1cc(Cl)ccc1OC [1-Benzyl-1-( -n-butyl)-3-(5-chloro-2-methoxyphenyl)urea] | 80.6
15 | CCCCN(Cc1ccccc1)C(=O)Nc1cccc(Cl)c1 [1-Benzyl-1-(n-butyl)-3-(3-chlorophenyl)urea] | 88.6

Next, values leading:

Row | inhibition at 5.2 µg/mL [%] | SMILES
16 | 85.8 | CCCCN(Cc1ccccc1)C(=O)Nc1cccc(C)c1C [1-Benzyl-1-( -n-butyl)-3-(2,3-dimethylphenyl)urea]
17 | 75.8 | CCCCN(Cc1ccccc1)C(=O)Nc1c(C)cc(C)cc1C [1-Benzyl-1-( -n-butyl)-3-(2,4,6-trimethylphenyl)urea]
18 | 92.7 | CCCCN(Cc1ccccc1)C(=O)Nc1cc(C)ccc1C [1-Benzyl-1-( -n-butyl)-3-(2,5-dimethylphenyl)urea]
19 | 78.8 | CCCCN(Cc1ccccc1)C(=O)Nc1ccccc1C [1-Benzyl-1-( -n-butyl)-3-(2-methylphenyl)urea]
20 | 87.1 | CCCCN(Cc1ccccc1)C(=O)Nc1ccc(C)c(C)c1 [1-Benzyl-1-( -n-butyl)-3-(3,4-dimethylphenyl)urea]
21 | 90.7 | CCCCN(Cc1ccccc1)C(=O)Nc1cc(Cl)cc(Cl)c1 [1-Benzyl-1-( -n-butyl)-3-(3,5-dichlorophenyl)urea]
22 | 92.3 | CCCCN(Cc1ccccc1)C(=O)Nc1cccc(C)c1 [1-Benzyl-1-( -n-butyl)-3-(3-methylphenyl)urea]
23 | 78 | CCCCN(Cc1ccccc1)C(=O)Nc1ccc(C)cc1 [1-Benzyl-1-( -n-butyl)-3-(4-methylphenyl)urea]
